Article doi:10.1101/2025.04.10.648262, “Time-resolved phenotyping at subcellular resolution reveals shared principles and key trade-offs across antimicrobial peptide activities” (bioRxiv, 2026)
Where two headings read alike, the source gives them in different places. Bridge positions count the residues as written; N and C are the ends. Ends that are not written are not given here.

Columns and labels:
Type in all cases: cell-based, Escherichia coli
E. coli (MG1655) = conditions: MG1655, 20 h
Method: For all experiments and E. coli strains, cells were grown in a medium (M9gluCAAT) with M9 salts (33.7 mM Na2HPO4, 22mM KH2PO4, 8.55 mM NaCl, 9.35 mM NH4Cl), 0.2% (w/v) glucose, 0.4% (w/v) casamino acids, 1 mM MgSO4, 0.3 mM CaCl2, 1 μg/mL thiamine, and trace elements (13.4 mM ethylene-diamine-tetra-acetic-acid (EDTA), 3.1 mM FeCl3-6H2O, 0.62 mM ZnCl2, 76 μM CuCl2-2H2O, 42 μM CoCl2-2H2O, 162 μM H3BO3, 8.1 μM MnCl2-4H2O). Prior to every experiment, cells were first inoculated into M9gluCAAT and grown to stationary phase at 37°C. For all assays except the biofilm experiments, the culture was diluted to 1/10,000 or more in fresh medium and grown at 37°C until it reached an optical density at 600 nm (OD) of 0.2–0.4. For the biofilm experiments, cells were grown in M9gluCAAT supplemented with 100 μg/mL ampicillin to maintain the GFP-expressing plasmid. The overnight stationary-phase cultures were then diluted into the same medium to an OD of 0.015. See below for details on biofilm growth.
Except for the biofilm experiments, the strains used in this study were derived from MG1655 (ATCC 47076), which was used to estimate the minimum inhibitory concentration (MIC) for all the studied peptides (or peptoids) using a microplate reader (Figure 1A). To detect the timing of outer and inner membrane permeabilization to proteins, strain CJW7845 was constructed to carry two freely diffusing fluorescent proteins: mScarlet-I in the periplasm and mTagBFP2 in the cytoplasm. Construction of CJW7845 was done by transforming pBAD-mTagBFP2 plasmid (Addgene #34632, a gift from Vladislav Verkhusha; ([Subach et al., 2011])) into an E. coli strain expressing a periplasmic mScarlet-I reporter ([Cañas-Duarte 2021]), as previously described ([Chung et al., 1989]). Transformants were restreaked on fresh selection plates and confirmed via microscopy.
(§1) To determine the minimal inhibitory concentration (MIC) of the selected AMPs against either MG1655 or ATCC 25922 E. coli strains, exponentially growing cells were diluted in fresh medium to an OD = 10^−6 (~500 cells/mL) and mixed 50:50 with titrated AMP concentrations (which were chosen to be over a range that included the MIC) in a 96-well plate (flat bottom with low evaporation lid, 3595, Corning, Arizona, USA). A final OD of 5 × 10^−7 corresponds to ~250 cells/mL. OD curves were sampled every 5 min for a total of 48 h using a microplate reader (BioTek Synergy 2, Agilent Technologies Inc., California, USA). Raw data were exported as a text file and analysed using a custom-written Python script (microplate_reader_analysis.py). To measure maximum growth rates, the log(OD) was fitted using a linear regression over a 12-point moving window (60 min), which provides the instantaneous growth rate (log(OD)/h), from which the global maximum was computed. The MIC was defined as the minimum AMP concentration for which the maximum growth rate was < 0.2 log(OD)/h within the first 20 h of incubation. Each MIC experiment was performed independently at least three times (with at least two technical replicates each), and the mode across all replicates was taken as the final MIC; in the rare cases of a tie, an additional replicate was performed, which was sufficient to resolve it.

E. coli ATCC 25922 = system: E. coli ATCC 25922
Method: Strain ATCC 25922GFP (ATCC, Virginia, USA), which carries a GFP-expressing plasmid, was selected for biofilm experiments. The strain’s ability to form biofilms was first verified at 37°C using Congo Red staining on agar plate containing M9gluCAAT. Congo Red dye binds curli, a major component of the biofilm extracellular matrix. Strain ATCC 25922 (lacking the GFP-expressing plasmid) was used for MIC determination (to avoid interference from the presence of ampicillin required to maintain the plasmid) following the standard growth protocol described above.
as §1

E. coli strain (CJW7845) = experiment: Time-lapse single-cell phenotyping of inner/outer membrane permeabilization to proteins and growth arrest in microwells; set-up: key to Class (timing of growth arrest relative to IM permeabilization to proteins): Class I AMPs and PMs cause growth arrest predominantly associated with inner membrane (IM) permeabilization; class II compounds inhibit growth without substantial IM permeabilization; conditions: for OM-permeabilized cells among IM-permeabilized cells: CJW7845, during the experiment
Method: For experiments with PDMS microwells, cells were allowed to grow for ~30 min in the temperature-controlled enclosure prior to imaging. A 10X concentrated AMP solution was spiked in (at 1/10 the volume of the well) and mixed well by pipetting after ~20 min from the start of the image acquisition, without interrupting the timelapse sequence. When the uptake of SYTOX Green was monitored, SYTOX Green was included in the AMP solution and spiked in during the experiment to obtain a final concentration of SYTOX Green of 50 nM in the well. This allowed us to monitor healthy cell growth prior to AMP treatment, to rapidly set the desired AMP (or SYTOX Green) concentration from one frame to the next (unlike for flow-controlled injection systems), and to resolve the AMP-induced phenotype in real time. The current design allows for testing up to four independent conditions in parallel.
To analyse the single-cell experiments in microwells, OmniSegger software (https://github.com/tlo-bot/omnisegger), which combines SuperSegger MATLAB-based suite ([Stylianidou et al., 2016]) for cell analysis with Omnipose segmentation ([Cutler et al., 2022]), was used to first process the microscopy images by performing drift correction, cell segmentation, and cell linking. Given that AMP-treated cells can display extreme phenotypes, such as exceedingly bright and/or heterogeneous phase contrast signal (likely a result of the widely changing intracellular density upon AMP treatment) and that the software’s pre-trained model bact_phase_omni ([Cutler et al, 2022]) tended to split cells before cell division was completed, a new Omnipose model was trained from scratch starting from bact_phase_omni-generated masks that were further corrected and curated using custom-made Python scripts (screening_good_bad.py and generate_training_dataset.py). Details on the Omnipose model retraining can be found in a previous publication ([Thappeta et al., 2025]). The final model (omnipose_phase_microwells_model) and corresponding training datasets are available at https://github.com/JacobsWagnerLab/published/tree/master/Fragasso_et_al_2025 and BioImage Archive (accession number: S-BIAD1823), respectively.
MATLAB files of the linked cell trajectories output from OmniSegger were then imported, background subtracted using background_subtraction.py, which was adapted from a previous study ([Papagiannakis et al., 2025]), and converted to Python data structures (import_processing_code.py), from which cell features such as cell area, nucleoid area, mean fluorescence intensity, etc., were extracted for each cell at each frame. The exported dataframes were further processed to estimate instantaneous growth rates and were run through a series of functions to perform curation based on cell areas and instantaneous growth rates over time (post_processing_curation_functions.py). […] Represented data points were pooled from multiple replicates.
Analysis of strain CJW7845 proceeded by extracting the timings of permeabilization of the outer and inner membranes based on the mean fluorescence intensities of mScarlet-I and/or mTagBFP2 fluorescent proteins (using function get_permeabilization_time.py), cell growth arrest, and the initiation time of growth inhibition. To obtain accurate timings underlying membrane permeabilization events, information from both the signal intensity itself as well as its derivative were combined, which enabled us to accurately resolve the relevant changes in fluorescent protein signal beyond the intrinsic high-frequency noise and low-frequency photobleaching. Inner membrane permeabilization to proteins can result in two possible phenotypes when simultaneously monitoring freely diffusing periplasmic and cytoplasmic probes, depending on which membrane (outer or inner) becomes permeabilized first. When the outer membrane is first permeabilized, mScarlet-I signal is lost first, followed by mTagBFP2 when the inner membrane becomes also permeabilized. […]

[1] = 2X MIC, CJW7845, M9gluCAAT, 37°C, time-lapse microscopy

| Compound | MIC (mode MIC) (E. coli (MG1655)) | MIC (mode MIC) (E. coli ATCC 25922; ATCC 25922, 20 h) | also measured |
| --- | --- | --- | --- |
| CC[C@H](C)[C@H](N)C(=O)N[C@@H](CC(C)C)C(=O)N1CCC[C@H]1C(=O)N[C@@H](Cc1c[nH]c2ccccc12)C(=O)N[C@@H](CCCCN)C(=O)N[C@@H](Cc1c[nH]c2ccccc12)C(=O)N1CCC[C@H]1C(=O)N[C@@H](Cc1c[nH]c2ccccc12)C(=O)N[C@@H](Cc1c[nH]c2ccccc12)C(=O)N1CCC[C@H]1C(=O)N[C@@H](Cc1c[nH]c2ccccc12)C(=O)N[C@@H](CCCNC(=N)N)C(=O)N[C@@H](CCCNC(=N)N)C(N)=O [Indo, indolicidin] | 12.5 µM | – | MIC (mode MIC) (E. coli ATCC 25922; E. coli ATCC 25922, M9gluCAAT, 37°C, 20 h, mode across four biological replicates): 6.2 µM |
| CC(C)C[C@H](NC(=O)[C@H](CCCNC(=N)N)NC(=O)CNC(=O)CNC(=O)[C@@H](N)CCCNC(=N)N)C(=O)N[C@H]1CSSC[C@@H](C(=O)N[C@H](C(=O)NCC(=O)N[C@@H](CCCNC(=N)N)C(N)=O)C(C)C)NC(=O)[C@H](C(C)C)NC(=O)[C@@H]2CSSC[C@H](NC(=O)[C@H](Cc3ccc(O)cc3)NC1=O)C(=O)N[C@@H](CCCNC(=N)N)C(=O)N[C@@H](CCCNC(=N)N)C(=O)N[C@@H](CCCNC(=N)N)C(=O)N[C@@H](Cc1ccccc1)C(=O)N2 [PG-1, protegrin-1] | – | – | Class (timing of growth arrest relative to IM permeabilization to proteins) (E. coli strain (CJW7845); [1]): I; OM-permeabilized cells among IM-permeabilized cells (E. coli strain (CJW7845); 2X MIC): 163/163; OM-permeabilized cells (out of all IM-permeabilized cells) (E. coli strain (CJW7845); 10X MIC, CJW7845): 48/59 |
| GIINTLQKYYCRVRGGRCAVLSCLPKEEQIGKCSTRGRKCCRRKK (disulfide 11-40, 18-33, 23-41 (inferred)) [HBD-3, human β-defensin 3] | 20 µM | – | Class (timing of growth arrest relative to IM permeabilization to proteins) (E. coli strain (CJW7845); [1]): I; Type (relative timing of OM and IM permeabilization) (E. coli strain (CJW7845); [1]): B (type B AMPs and PMs permeabilize the IM well before (>10 min) the OM); OM-permeabilized cells among IM-permeabilized cells (E. coli strain (CJW7845); 2X MIC): 7/82 |

Continued, in another order:

| MIC (mode MIC) (E. coli (MG1655)) | MIC (mode MIC) (E. coli ATCC 25922; ATCC 25922, 20 h) | Compound | also measured |
| --- | --- | --- | --- |
| 1 µM | 1 µM | RRIRFRPPYLPRPGRRPRFPPPFPIPRIPRIP [Tur1A] | – |
| 0.6 µM | 0.6 µM | RRIRPRPPRLPRPRPRPLPFPRPGPRPIPRPLPFP [Bac7, bactenecin-7] | – |
| 0.5 µM | 0.5 µM | KWKLFKKIEKVGQNIRDGIIKAGPAVAVVGQATQIAK-NH2 [CecA, cecropin A] | – |
| 2 µM | 1 µM | RRRPRPPYLPRPRPPPFFPPRLPPRIPPGFPPRFPPRFP-NH2 [PR-39] | – |
